Experimental data published in PubChem BioAssay AID2060903 (Molecular Pharmacology Branch, DTP, NCI, 2025).

Test system: 377384-186-R-J1-PDC complex spheroid viability
Experiment: Anticancer human tumor 377384-186-R-J1-PDC patient-derived pancreatic carcinoma cell line growth inhibition [RAS]
Details: for IC50: curve of first compound; for viability, T/C: stronger effect = lower value
Method in brief: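 Tumour cells grown as complex spheroids with HUVEC endothelial cells and mesenchymal stem cells, treated with RAS pathway inhibitor combinations. Each agent spans half-log steps from near clinical Cmax, or 10 microM where Cmax is unknown.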
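Also: spheroids exposed to compounds for seven days before readout.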

Q: For `NC1c2ccccc2OC12CCN(c1cnc3c(N4CCCc5ncccc54)n[nH]c3n1)CC2` (configuration not stated) + CCn1c(-c2cc(N3CCN(C)CC3)cnc2C(C)OC)c2c3cc(ccc31)-c1csc(n1)CC(NC(=O)C1CC1C)C(=O)N1CCCC(N1)C(=O)OCC(C)(C)C2, which IC50 (second compound 0.000949 µM) is on record?
A: < 0.0316 µM

Q: What about the IC50 (second compound 0.003 µM) of the same molecule?
A: < 0.0316 µM

Q: What about the IC50 (second compound 0.00949 µM) of the same molecule?
A: < 0.0316 µM

Q: What about the IC50 (second compound 0.03 µM) of the same molecule?
A: < 0.0316 µM

Q: What about the IC50 (second compound 0.0949 µM) of the same molecule?
A: < 0.0316 µM

Q: And the IC50 (second compound 0.3 µM)?
A: < 0.0316 µM

Q: What about the viability, T/C (second compound 0.000949 µM, first compound 0.0316 µM) of the same molecule?
A: 5.69%

Q: And the viability, T/C (second compound 0.000949 µM, first compound 0.1 µM)?
A: 3.23%

Q: And the viability, T/C (second compound 0.000949 µM, first compound 0.316 µM)?
A: 1.88%

Q: What about the viability, T/C (second compound 0.000949 µM, first compound 1 µM) of the same molecule?
A: 1.71%

Q: What about the viability, T/C (second compound 0.000949 µM, first compound 3.16 µM) of the same molecule?
A: 1.35%

Q: And the viability, T/C (second compound 0.000949 µM, first compound 10 µM)?
A: 0.78%

Q: And the viability, T/C (second compound 0.003 µM, first compound 0.0316 µM)?
A: 2.74%

Q: What about the viability, T/C (second compound 0.003 µM, first compound 0.1 µM) of the same molecule?
A: 1.37%

Q: And the viability, T/C (second compound 0.003 µM, first compound 0.316 µM)?
A: 1.06%

Q: And the viability, T/C (second compound 0.003 µM, first compound 1 µM)?
A: 0.67%

Q: What about the viability, T/C (second compound 0.003 µM, first compound 3.16 µM) of the same molecule?
A: 0.28%

Q: What about the viability, T/C (second compound 0.003 µM, first compound 10 µM) of the same molecule?
A: 0.2%

Q: And the viability, T/C (second compound 0.00949 µM, first compound 0.0316 µM)?
A: 1.78%

Q: What about the viability, T/C (second compound 0.00949 µM, first compound 0.1 µM) of the same molecule?
A: 1.22%

Q: What about the viability, T/C (second compound 0.00949 µM, first compound 0.316 µM) of the same molecule?
A: 0.77%

Q: And the viability, T/C (second compound 0.00949 µM, first compound 1 µM)?
A: 0.41%

Q: And the viability, T/C (second compound 0.00949 µM, first compound 3.16 µM)?
A: 1.43%

Q: And the viability, T/C (second compound 0.00949 µM, first compound 10 µM)?
A: 0.08%

Q: And the viability, T/C (second compound 0.03 µM, first compound 0.0316 µM)?
A: 2.14%

Q: What about the viability, T/C (second compound 0.03 µM, first compound 0.1 µM) of the same molecule?
A: 1.39%

Q: What about the viability, T/C (second compound 0.03 µM, first compound 0.316 µM) of the same molecule?
A: 1%

Q: What about the viability, T/C (second compound 0.03 µM, first compound 1 µM) of the same molecule?
A: 0.36%

Q: What about the viability, T/C (second compound 0.03 µM, first compound 3.16 µM) of the same molecule?
A: 0.18%

Q: And the viability, T/C (second compound 0.03 µM, first compound 10 µM)?
A: 0.1%

Q: And the viability, T/C (second compound 0.0949 µM, first compound 0.0316 µM)?
A: 1.61%

Q: What about the viability, T/C (second compound 0.0949 µM, first compound 0.1 µM) of the same molecule?
A: 1.57%

Q: And the viability, T/C (second compound 0.0949 µM, first compound 0.316 µM)?
A: 0.67%

Q: And the viability, T/C (second compound 0.0949 µM, first compound 1 µM)?
A: 0.17%

Q: What about the viability, T/C (second compound 0.0949 µM, first compound 3.16 µM) of the same molecule?
A: 0.13%

Q: What about the viability, T/C (second compound 0.0949 µM, first compound 10 µM) of the same molecule?
A: 0.29%

Q: What about the viability, T/C (second compound 0.3 µM, first compound 0.0316 µM) of the same molecule?
A: 1.41%

Q: And the viability, T/C (second compound 0.3 µM, first compound 0.1 µM)?
A: 1.04%

Q: And the viability, T/C (second compound 0.3 µM, first compound 0.316 µM)?
A: 0.5%

Q: And the viability, T/C (second compound 0.3 µM, first compound 1 µM)?
A: 0.27%

Q: And the viability, T/C (second compound 0.3 µM, first compound 3.16 µM)?
A: 0.14%

Q: What about the viability, T/C (second compound 0.3 µM, first compound 10 µM) of the same molecule?
A: 0.1%
